Test results reported in patent US20230406849A1, “KRAS INHIBITORS FOR TREATMENT OF CANCERS” (TYLIGAND BIOSCIENCE (SHANGHAI) LIMITED, priority 2020, published 2023).
pIC50: −log10 of the molar value. Read-outs that look alike come from different tables or passages of the source.

What was measured:
[1] = Cassette pharmacokinetic experiment in rats (IV); format: in vivo; settings: rat, plasma, 1 mg/kg, male SD rats, tail vein IV, 1 mg/mL each compound at 1 mL/kg
From the text: 2.1 Pharmacokinetic Properties of Some Compounds of the Present Disclosure Evaluated by Cassette Pharmacokinetic Experiments in Rats.
[Test materials]: Male SD rats, age: 6-8 weeks, body weight 220-250 g, purchased from Zhaoyan (Suzhou) New Drug Research Center Co., Ltd.; Tolbutamide (Aladdin, Cat #H1401054); Sulfobutyl-(Captisol, Shandong Binzhou Zhiyuan Biological Technology Co., Ltd, Cat #20191013); Propylene glycol (15)-stearate (Solutol, Meilun Bio, Cat #50206A); DMSO (Vetec Company, Cat #WXBD0293V); acetonitrile (Sigma-Aldrich, Cat #WXBD1744V); Methanol (Sigma-Aldrich, Cat #WXBD2831V).
[Experimental procedure]: The compound combination was prepared in a solvent of 5% DMSO/10% Solutol/85% (20% Captisol), and the final concentration of each compound was 1 mg/mL. The SD rats were treated with the compound preparation in 1 mL/kg by tail vein IV injection, and blood samples were collected at the time points of 5 min, 15 min, 30 min, 1 h, 2 h, 4 h, 8 h, and 24 h via external jugular vein puncture, centrifuged at low temperature for 20 minutes to collect plasma samples, which were stored at −80° C. until analysis.
[Sample analysis]: Establishing LC-MS/MS compound analysis method
Standard curve preparation: 20 μL of lmg/mL DMSO stock solution for each compound was aspirated and transferred to […] of 50% methanol working solution, and the resulting solution was serially diluted to obtain a standard curve working solution with concentrations of 20000, 10000, 5000, 1000, 500, 100, 50, 20 and […]. Then 5 µL of this standard curve working solution was mixed with 45 μL rat blank plasma to give a standard curve with concentrations of 2000, 1000, 500, 100, 50, 10, 2 and 1 ng/mL for quantification of unknown samples.
Sample pretreatment: 50 μL of unknown plasma sample or standard curve sample was mixed with 250 μL of acetonitrile containing internal standard as a precipitant. The plasma protein was precipitated, extracted for test compounds, and centrifuged at low temperature for 20 minutes. The supernatant was taken, mixed with 0.1% formic acid aqueous solution, and 5 μL of the resulting solution was aspirated for blood concentration analysis.
[Data processing]: A standard curve was plotted using mass spectrometry software, to quantify unknown samples, and pharmacokinetic parameters are calculated by Winnonlin 8.2 using the drug concentration of unknown samples at each time point.

[2] = test system: human non-small cell lung cancer cells NCI-H358 with KRas G12C mutation; experiment: NCI-H358 cell proliferation, CellTiter-Glo Luminescent Cell Viability Assay; format: cell-based; settings: for inhibition at 1 µM: 1 μM compound, read-out: Inhibition rate % (1 μM)
From the text: This assay verified the inhibitory activity of the compounds of the present disclosure on the proliferation of human non-small cell lung cancer cells NCI-H358 with KRas G12C mutation by using Promega's CellTiter-Glo® Luminescent Cell Viability Assay kit.
[Test materials]: NCI-H358 cell line (Cell Resource Center, IBMS, CAMS/PUMC, Item number: 3111C0001CCC000470), 96-well transparent flat-bottomed black-walled cell culture plate (Greiner Bio one, Cat #655096), RPMI-1640 Medium (GE, Cat #SH30809.01), Fetal Bovine Serum FBS (Thermo Fisher, Cat #10099-141), CellTiter-Glo® Luminescent Cell Viability Assay Kit (Promega, Cat #G7573), PBS (Solarbio, Cat #P1020), Trypsin (Thermo Fisher, Cat #25200072), DMSO (Sigma, Cat #D2650), Methyl cellulose (SIGMA, Cat #9004-67-5).
[Experimental procedure]: 180 μL of cell suspension (RPMI1640 solution with 10% FBS and 1% methyl cellulose) was charged to a 96-well cell culture plate at a density of 1500 cells/well. A control group containing no cells, no compounds and only 3D complete medium (RPMI 1640 solution with 1! Methyl cellulose and 10% FBS) (i.e. culture medium control) and a control group containing no compounds but cells (i.e. cell control) were set. AMG510 or the following reference compounds were used as positive controls. The cell plate was placed in a cell incubator overnight. A 10-fold drug solution (RPMI1640 solution with 10% FBS and 1% DMSO) was prepared at a concentration of 10 μM, and 20 μL of this solution was added to each well of the 96-well plate seeded with cells, so that the final concentration of the compounds in each well was 1 μM, and the DMSO concentration […] replicate wells were set up for each compound. The solutions of AMG510 or the following reference compounds were prepared in the same way and added to the positive control wells. The cell plate was placed in a cell incubator and cultured for 120 h. For endpoint detection, the CellTiter-Glo reagent was melted, and the cell plate was moved to room temperature to equilibrate for 30 minutes, added with 100 µL of CellTiter-Glo to each well, and shaken on an orbital shaker for 5 minutes to fully lyse the cells. The plate was kept at room temperature for 20 minutes to stabilize the luminescence signal, and the luminescence value of each well was full wavelength scanned with a multi-functional microplate reader (Molecular Devices, Spectramax M3 microplate reader).
[Test samples] The compounds of Examples 1-39, and reference compound A
[Data Analysis] The following formula was used to calculate the cell inhibition rate under the action of each concentration of the compounds:
Inhibition rate %=[1−(LumDrug to be tested−LumCulture medium control)/(LumCell control−LUMCulture medium control)]×100%
IC50 values were calculated using GraphPad Prism 7.0 software, nonlinear Sigmoidal regression was used to fit the data to obtain a dose-response curve.

Row | AUC(0-t) [1] | clearance [1] | half-life [1] | pIC50 ([2]; 120 h, read-out: IC50) | pIC50 ([2]; read-out: IC50 value) | SMILES | inhibition at 1 µM ([2]; 120 h)
1 | 231 ng·h/mL | 71.8 mL/min/kg | 29.4 min | – | – | C=CC(=O)N1CCN(c2nc(=O)n(-c3c(C)ccnc3C(C)C)c3nc(-c4c(O)cccc4F)c(F)cc23)[C@@H](C)C1 (atropisomer, axis not shown) [AMG510, reference compound] | –
2 | – | – | – | 7.74 | > 7.70 | C=CC(=O)N1CCN(c2c(C#N)cnc3c(F)c(-c4ccc(F)c5sc(N)nc45)c(Cl)cc23)C[C@H]1C [Example 8, 4-((R)-4-acryloyl-3-methylpiperazin-1-yl)-7-(2-amino-7-fluorobenzo[d]thiazol-4-yl)-6-chloro-8-fluoroquinoline-3-carbonitrile] | 94%
3 | 1050 ng·h/mL | 15.8 mL/min/kg | 40.2 min | 8.07 | > 7.70 | C=CC(=O)N1CCN(c2c(C#N)cnc3c(F)c(-c4ccc(F)c5sc(N)nc45)c(Cl)cc23)CC1 [Example 9, 4-(4-Acryloylpiperazin-1-yl)-7-(2-amino-7-fluorobenzo[d]thiazol-4-yl)-6-chloro-8-fluoroquinoline-3-carbonitrile] | 98.8%
4 | 623 ng·h/mL | 27.1 mL/min/kg | 60 min | 7.96 | – | C=CC(=O)N1CCN(c2ncnc3c(F)c(-c4ccc(F)c5sc(N)nc45)c(Cl)cc23)CC1 [Ref. Comp. A, reference compound] | 96.9%
